Test results reported in patent publication US5853699A, “Use of tetra azacycle complexes as x-ray diagnostic agents for the liver and gallbladder” (priority 1995, dated 1998).
“And” between values parts separate entries of the source, which are not always exact repeats. Identical values can stand only once. Like-named read-outs stand apart in the source and are kept apart here. Blank lines part the entries; values can stand above or below the molecule they belong to.

How the values were obtained:
[1] = compatibility (overall condition, vital parameters, laboratory analysis of serum and urine) in patients (Example 19); type: in vivo, human
Description: Fifteen human patients with known liver metastases were examined in the liver-CT 10 minutes, 60 minutes and (N=5) 120 minutes after intravenous infusion of 0.2, 0.35 or 0.5 mmol/kg of Gd-EOB-DTPA (see Example 16).
Gd-EOB-DTPA ([…]) was administered intravenously in an intravenous drip in the arm vein. The infusion time was 20 minutes for the dosages of 0.2 and 0.35 mmol/kg and 30 minutes for the maximum dose of 0.5 mmol/kg.
The compatibility of Gd-EOB-DTPA was determined by determining the overall condition, the recording of vital parameters and a laboratory analysis of serum and urine parameters.

liver metastases = test: liver CT of human patients with known liver metastases (Example 19); type: in vivo
Description: Gd-EOB-DTPA ([…]) was administered intravenously in an intravenous drip in the arm vein. The infusion time was 20 minutes for the dosages of 0.2 and 0.35 mmol/kg and 30 minutes for the maximum dose of 0.5 mmol/kg. […] Exclusion criteria for the patients were: […] The entire liver was measured within 20-30 seconds of a pause in breathing. The table feed rate was 8 mm/sec, the collimation 8 mm. Using a basis of pre-contrast and post-contrast images, two independent observers evaluated the number and size of the metastases qualitatively (excellent, good, moderate, minimal, no improvement) and quantitatively (measurement of the Houndsfield units).

healthy liver parenchyma = test: density enhancement of the healthy liver parenchyma in CT after infusion, patients with liver metastases (Example 16); type: in vivo, human; conditions: 0.35 mmol/kg, 0.25 molar solution, individual patients 1-5 (one line per patient), disodium salt
Description: Density enhancement of the healthy liver parenchyma 10 and 60 minutes after infusion of a 0.25 molar solution of the gadolinium(III) complex of the 3,6,9-triaza-3,6,9-tris(carboxymethyl)-4-(4-ethoxybenzyl)-undecanedioic acid disodium salt (Gd-EOB-DTPA, described in Example 8c of EP 0405704) in the case of 5 human patients with liver metastases in a dose of 0.35 mmol/kg in Houndsfield units (HU). This dose corresponds to about 16 g of the complex per 70 kg of patient.

[2] = density values of samples measured in a water phantom in a computer tomograph (137 kV, 100 mA); type: physicochemical
Description: 3,6,9-Triaza-3,6,9-tris-(carboxymethyl)-4-(4-ethoxybenzyl)-undecanedioic acid
Disodium salt was complexed with different X-ray-absorbing metal ions and then in the case of differing concentration, the density values of the samples were measured in a water phantom since it approximately corresponded in dimensions to those of a human abdomen.

liver [3] = conditions: cited from earlier work; for concentration in the liver (fold), at 50 μg of iodine/ml: 50 μg of iodine/ml of plasma; for concentration in the liver versus plasma, at 500 μg of iodine/ml: 500 μg of iodine/ml of plasma
liver [4] = conditions: human, maximum compatible dose corresponding to about 7 g of iodine/70 kg; cited from earlier work
[5] = humans; cited from earlier work
mice = test: acute toxicity (LD50) after one-time intravenous administration to mice; type: in vivo, mouse (NMRI (SPF)); conditions: mice (NMRI), 2 ml/minutes, deaths up to 7 days
Description: Study of acute toxicity (LD50) after one-time intravenous administration to mice
The contrast medium to be tested was administered to the mice in individual restraining cages (strain: NMRI (SPF); cultivator: Schering; average weight: 20 g; same sex distribution) into one of the caudal veins at a rate of 2 ml/minutes and at different dosage levels. The number of animals that died up to a fixed time was determined (3 hours, 24 hours, 3 days and 7 days).

liver [6] = conditions: human, dose corresponding to 360 mg of iodine/kg; cited from earlier work
liver [7] = conditions: monkey; cited from earlier work
liver [8] = conditions: dog; cited from earlier work
liver [9] = conditions: mouse; cited from earlier work
[10] = 0.2, 0.35 or 0.5 mmol/kg i.v. infusion

Structure (SMILES): O=C(COCC(=O)Nc1c(I)cc(I)c(C(=O)O)c1I)Nc1c(I)cc(I)c(C(=O)O)c1I [ioglycamate]
concentration in the liver (fold), at 5 μg of iodine per ml of plasma (liver [3]): 5 -fold | concentration in the liver (fold), at 50 μg of iodine/ml (liver [3]): ~2 -fold | concentration in the liver versus plasma, at 500 μg of iodine/ml (liver [3]): considerably lower than in the plasma

Structure (SMILES): O=C(COCCOCCOCC(=O)Nc1c(I)cc(I)c(C(=O)O)c1I)Nc1c(I)cc(I)c(C(=O)O)c1I [iotroxinate]
enhancement in the liver (liver [4]): 15 HU | concentration in the liver (fold), at 5 μg of iodine per ml of plasma (liver [3]): 5 -fold | concentration in the liver (fold), at 50 μg of iodine/ml (liver [3]): ~2 -fold | concentration in the liver versus plasma, at 500 μg of iodine/ml (liver [3]): considerably lower than in the plasma | excreted via the bile ducts [5]: about 90%

Structure (SMILES): CCOc1ccc(CC(CN(CCN(CC(=O)[O-])CC(=O)[O-])CC(=O)[O-])N(CC(=O)[O-])CC(=O)[O-])cc1.[Ho+3].[Na+].[Na+] (stereo not drawn) [Ho]
density (HU ± SD), 50 mmol/L [2]: 221 HU | density (HU ± SD), 500 mmol/L [2]: 1890 HU

Structure (SMILES): CCOc1ccc(CC(CN(CC(=O)[O-])CC(Cc2ccc(OCC)cc2)N(CC(=O)[O-])CC(=O)[O-])N(CC(=O)[O-])CC(=O)[O-])cc1.[Na+].[Na+].[Yb+3] (stereo not drawn) [Example 4e, Ytterbium complex of the disodium salt of 3,6,9-triaza-3,6,9-tris-(carboxymethyl)-4,8-bis-(4-ethoxybenzyl)-undecanedioic acid]
LD50 (mice): approximately 15 mmol/kg of body weight

Structure (SMILES): CNC(=O)c1c(I)c(NC(=O)COCC(=O)N(C)c2c(I)cc(I)c(C(=O)O)c2I)c(I)c(C(=O)O)c1I [SH L 433]
enhancement of the liver (liver [6]): < 10 HU | enhancement of the liver (liver [7]): > 40 HU | enhancement of the liver (liver [8]): > 40 HU | enhancement of the liver (liver [9]): > 40 HU

Now from value to molecule, other results behind:

general compatibility ([1]; 0.2, 0.35 or 0.5 mmol/kg i.v. infusion, 15 patients): good | burning sensation at the infusion site or retrograde therefrom (cases) ([1]; persisted for a few seconds or minutes): two | slight increases of aspartate transferase and alaninamino transferase (patients) ([1]; probably caused by the liver metastases): three | evaluation of the laboratory parameters ([1]; serum and urine parameters): no precise trend | density (HU ± SD), 50 mmol/L [2]: 218 HU | density (HU ± SD), 500 mmol/L [2]: 1680 HU
Structure (SMILES): CCOc1ccc(CC(CN(CCN(CC(=O)[O-])CC(=O)[O-])CC(=O)[O-])N(CC(=O)[O-])CC(=O)[O-])cc1.[Gd+3].[Na+].[Na+] (stereo not drawn) [Gd-EOB-DTPA, gadolinium(III) complex of the 3,6,9-triaza-3,6,9-tris(carboxymethyl)-4-(4-ethoxybenzyl)-undecanedioic acid disodium salt]
other side effects ([1]; 0.2, 0.35 or 0.5 mmol/kg): nausea and a sensation of pressure in the epigastric region | mild or moderate side effects observed (number) ([1]; 0.2, 0.35 or 0.5 mmol/kg, 15 patients): four | visualization of the metastases, all dose groups (liver metastases; 0.2, 0.35 and 0.5 mmol/kg): improved | CT density of the healthy liver (liver metastases; [10]): dose-dependent increase | CT density of the metastases (liver metastases; [10]): unchanged | visualization of the metastases, two upper dose groups (liver metastases; 0.35 and 0.5 mmol/kg): excellent | visualization of the gallbladder and the bile ducts (liver metastases; after i.v. infusion): possible | additional metastases discovered, on the average (liver metastases; maximum dose (0.5 mmol/kg)): two | average size of the smallest metastases found (liver metastases; maximum dose, decreased from 20.3 mm): 16.6 mm | diameter of additional lesion detected (liver metastases; one patient, left lobe of the liver, previously not found): 7 mm | summary as liver or gallbladder contrast medium for CT (liver metastases; summary statement): well-tolerated and effective | Density enhancement of the healthy liver parenchyma, 10 minutes p. inf. (healthy liver parenchyma; 10 minutes after infusion): 19 HU and 12 HU and 10 HU and 18 HU and 15 HU | Density enhancement of the healthy liver parenchyma, 60 minutes p. inf. (healthy liver parenchyma; 60 minutes after infusion): 26 HU and 25 HU and 17 HU and 32 HU

density (HU ± SD), 50 mmol/L [2]: 226 HU | density (HU ± SD), 500 mmol/L [2]: 1840 HU
Structure (SMILES): CCOc1ccc(CC(CN(CCN(CC(=O)[O-])CC(=O)[O-])CC(=O)[O-])N(CC(=O)[O-])CC(=O)[O-])cc1.[Dy+3].[Na+].[Na+] (stereo not drawn) [Dy]

density (HU ± SD), 50 mmol/L [2]: 254 HU | density (HU ± SD), 500 mmol/L [2]: 1955 HU
Structure (SMILES): CCOc1ccc(CC(CN(CCN(CC(=O)[O-])CC(=O)[O-])CC(=O)[O-])N(CC(=O)[O-])CC(=O)[O-])cc1.[Er+3].[Na+].[Na+] (stereo not drawn) [Er]

density (HU ± SD), 50 mmol/L [2]: 252 HU | density (HU ± SD), 500 mmol/L [2]: 1980 HU
Structure (SMILES): CCOc1ccc(CC(CN(CCN(CC(=O)[O-])CC(=O)[O-])CC(=O)[O-])N(CC(=O)[O-])CC(=O)[O-])cc1.[Na+].[Na+].[Yb+3] (stereo not drawn) [Yb, Ytterbium complex of the disodium salt of 3,6,9-triaza-3,6,9-tris-(carboxymethyl)-4-(4-ethoxybenzyl)-undecanedioic acid]

density (HU ± SD), 50 mmol/L [2]: 228 HU | density (HU ± SD), 500 mmol/L [2]: 1760 HU
Structure (SMILES): CCOc1ccc(CC(CN(CCN(CC(=O)[O-])CC(=O)[O-])CC(=O)[O-])N(CC(=O)[O-])CC(=O)[O-])cc1.[Na+].[Na+].[Tb+3] (stereo not drawn) [Tb]
